According to US8466118B2, “Modulation of blood brain barrier protein expression” (Saint Louis University, priority 2007, dated 2013):
Oligonucleotides are written 5' to 3', each unit as a sugar letter and its base; * is a phosphorothioate linkage, no mark a phosphodiester; rarer units and linkages stand in square brackets, end groups in braces. Plain capitals give the bases only. No end group written: not given here. d = 2'-deoxy (DNA)

Columns and labels:
mouse brain microvessels = test: I-PACAP27 binding to isolated mouse brain microvessels; details: for displacement of I-PACAP27 binding by unlabeled peptide: 50 nM unlabeled peptide, 2.5 min
Experimental: Binding Study. Freshly isolated microvessels (30 μg protein) were resuspended in 45 μl of incubation buffer (129 mM NaCl, 2.5 mM KCl, 7.4 mM Na2HPO4, 1.3 mM KH2PO4, 0.63 mM CaCl2, 0.74 mM MgSO4, 5.3 mM glucose, 0.1 mM ascorbic acid, pH 7.4) containing 1% bovine serum albumin (BSA). Microvessel protein levels were determined with the Biorad DC protein assay kit (Hercules, Calif.). Incubation buffer, PACAP27 (4 μl of 0.8 nM), and any additives as indicated below were mixed with the 45 μl suspension of cells to a final volume of 60 μl (to give a final PACAP27 concentration of 53 pM) and incubated for 2.5 min at room temperature unless otherwise specified. At the end of incubation, samples were assayed for protein-bound radioactivity by vacuum filtration through Gelman Sciences glass microfiber filters (Ann Arbor, Mich.) pretreated with 0.5% polyethyleneimine. Filters were washed three times with 4 ml of incubation buffer at 4° C. The radioactivity trapped on the filters was measured using a gamma-counter. Nonspecific binding was determined in the absence of microvessels and under the above conditions was 20% of the total binding (TB). The specific binding was calculated as total binding minus non-specific binding and expressed as a percentage. All experiments were performed in triplicate on at least three occasions and the results reported as means with their standard errors.
Inhibition of Specific Binding of PACAP27. Self-inhibition was tested by adding varying amounts of unlabeled PACAP27. The percent of specific binding was calculated by taking the % TB for microvessels incubated with 0.8 nM PACAP27 as 100% and without microvessel incubation as 0%. An n of 3 was used per concentration. The fmol specifically bound was calculated by dividing the percent of specific binding by 100 and multiplying by the pM (PACAP27 and any unlabeled PACAP27 combined) of the incubation solution and by the volume. This was plotted against the nM in the media and the relation fitted to a one-site hyperbolic binding model.
Inhibition of I-PACAP27 Binding by PACAP Related Peptides. The effects of 50 nM of unlabeled PACAP27, PACAP38, the PACAP antagonists PACAP 6-27 and PACAP 6-38 (Bachem, Torrance, Calif.), and VIP (Sigma, St. Louis, Mo.) on PACAP27 specific binding was determined. Results were expressed as percent of control.

Type-I binding sites = details: anterior pituitary and hypothalamus, I-PACAP27 radioligand; cited from earlier work
[1] = CNS pharmacokinetics of iv P-Olg (influx rate, saturability, capillary depletion, regional uptake); assay type: in vivo, mouse; details: for distribution between brain capillaries and parenchyma (capillary depletion) / saturability of brain uptake: 30 min after iv; for distribution between brain capillaries and parenchyma (capillary depletion): with vascular washout; for saturability of brain uptake: co-administration of 10 μg unlabeled PS-ODN; for rate of brain uptake (Ki): iv (jugular), multiple-time regression 2-30 min; for mean regional uptake into hippocampus (HPC) versus frontal cortex (FC) and whole brain (WB): iv, 2-30 min
Experimental: For this analysis, the brain/serum ratios for time points ranging from 2 to 30 min after i.v. injection was plotted against their respective exposure times (Expt). Expt is used instead of real time because this value corrects for the clearance of the injected substance from the blood. Without this correction, the influx rate would be overestimated. […] Expt will be calculated using the following formula: Expt=[∫^toCp(t)dt]/Cpt, where t is time, Cp represents the level of radioactivity in the serum and Cpt is the level of radioactivity in the serum at time t.
(§1) Calculation of the percent of injected dose taken up per gram of tissue: For the purpose of these studies, mice were injected iv (into the jugular vein) with P-19 mer or P-23 mer (5×10^5 cpm/200 μl of Lactated Ringer's solution (Baxter Healthcare Corporation, Deerfiled, Ill.) supplemented with 1% BSA). […] Serum levels of radioactivity were determined by counting 50 μl of serum in a gamma counter.
(§2) The % of the injected dose taken up by each gram of either whole brain, brain region (hippocampus or frontal cortex) or liver tissue (% Inj dose/g brain) was calculated using the following formula: % Inj dose/g brain=100(Am/Cpt−Vi)Cpt/Inj, where Am/Cpt represents the brain/serum ratio at time t, and Inj is the mean dose injected i.v. Subtracting Vi from the tissue/serum ratio corrects for P-Olg in the vascular space of the whole tissue. This will remove the vascular component so that the quantities expressed represent only the P-Olg that has been taken up by tissue. The values for % Inj dose/g brain will be plotted against their respective time points (min).
Measuring saturability of brain uptake for cocktail ODNs: To determine if brain uptake of each individual P-Olg was saturable, 10 μg/mouse of unlabeled cocktail PS-ODN (either 19 mer or 23 mer) was included in the i.v. injection of either P-19 mer or P-23 mer at a dose of 5×10^5 cpm/200 μl of Lactated Ringer's solution supplemented with 1% BSA [LR-BSA]). Brain and serum samples were collected 30 min after i.v. injection. Results were expressed as brain/serum ratios.
In these studies, mice received an iv injection of either P-19 mer or P-23 mer at a dose of 5×10^5 cpm/200 μl LR-BSA into the jugular vein. Washout of the vascular space was performed to remove any substances that were intravascular or loosely adhered to the capillary lumen of the brain microvasculature.
Mice were anesthetized with 40% urethane and, at 30 min after i.v. injection of P-Olg into the jugular vein, the abdomen was opened and arterial blood was collected from the abdominal aorta. Next, the thorax was opened with a midline sternal incision and the descending thoracic aorta was clamped to cut off the circulation to the lower body. Both jugular veins were severed and an 18-gauge needle connected to a 20 ml syringe containing lactated Ringers (LR) solution was inserted into the left ventricle of the heart. All 20 ml of LR were infused into the mouse heart over a period of 1-2 min. This washes out the vascular space of the brain and drains out the severed jugular veins. […] Next, the homogenate was vortexed and homogenized a second time (3 strokes). All homogenization steps were performed at 4° C. on ice. […] After centrifugation, the supernatant containing the brain parenchyma was separated from the pellet (containing the brain microvasculature) and the level of radioactivity was determined with a Beckman scintillation counter.
Results from the capillary depletion experiments were expressed as the volume of distribution in the brain or capillaries for the injected substance. Volume of distribution (VD) values were expressed as tissue (parenchyma or capillary)/serum ratios and were calculated for both fractions using the following formula: VD=(cpm/gram of tissue)/(cpm/ml of serum)

[2] = Percent of iv injected dose taken up per gram of brain or liver; assay type: in vivo, mouse
Experimental: as §1, §2
For these studies, the PS-ODNs were delivered iv and relative uptake into the brain and liver (from 5-30 min) were studied.

[3] = Brain-to-blood efflux rate of icv P-Olg; assay type: in vivo, mouse; details: for half-life of efflux from the brain: first 20 min after icv administration; for rate of brain efflux: icv injection
Experimental: First, mice were anesthetized with an i.p. injection of 40% urethane. After the scalp was removed, a hole was made through the cranium (1.0 mm lateral and 0.5 mm posterior to bregma) with a 26-gauge needle. All of the needle except 2.5 to 3.0 mm of the tip was covered by PE-10 tubing. […] Injections were made into the lateral ventricle (icv) with a 1.0 μl Hamilton syringe.
In experiments in which brain efflux of the cocktail PS-ODNs were determined, each P-Olg (either P-19 mer or P-23 mer) was studied separately. A P-Olg (5×10^3 cpm/μl) was administered by icv injection. Mice were then decapitated at 2, 5, and 20 min after injection and the brain was removed. The amount of radioactivity present in the brain was measured by a scintillation counter. The amount of radioactivity in the brain at t=0 was estimated in mice overdosed with urethane. […] Brains from these mice were removed 10 min after injection. The log of the mean % of the injected dose of radioactivity (amount detected/amount injected*100=% Inj Dose) in each brain was plotted against time (min) and linear regression analysis was used to create a line between these time points.

beta-F1 ATPase = target: T1, beta-F1 ATPase (Mus musculus, UniProt P56480); test: Brain perfusion uptake of I-PACAP27/I-PACAP38 after iv antisense; assay type: in vivo; details: single tail vein injection 24 h before study, 10 μg/mouse
T1 construct: from tissue; host or cells: brain / blood-brain barrier of living mice (CD-1; SAMP8 in the T-maze study)
Experimental: To test the effectiveness of PTS-6 antisenses after their intravenous administration, two month old male CD-1 mice kept on a 12/12 hour light/dark cycle with food and water freely available were given an injection by tail vein of 0.9% saline with or without 10 μg/mouse of each of the three antisenses. To determine the specificity of the PTS-6 antisense on I-PACAP27 efflux, three other antisenses were also injected iv. These were:
After 24 h, the mice were anesthetized with urethane and both jugular veins exposed. The thorax was opened, the descending thoracic aorta clamped, both jugular veins severed, and lactated Ringer's solution containing I-PACAP27 (250,000 cpm/ml) perfused through the left ventricle of the heart at the rate of 2 ml/min. ^131I-PACAP38 (hereafter referred to as I-PACAP38) was perfused in some mice treated with PTS-6 antisense. After 5 min, the perfusion was stopped and 20 ml of lactated Ringer's solution was infused through the left ventricle of the heart to wash out the vascular space of the brain. The level of radioactivity was determined in the brain and in an aliquot of the perfusion fluid and results expressed as the brain/perfusion ratio in units of μl/g.

T1 sequence (P56480 47-529): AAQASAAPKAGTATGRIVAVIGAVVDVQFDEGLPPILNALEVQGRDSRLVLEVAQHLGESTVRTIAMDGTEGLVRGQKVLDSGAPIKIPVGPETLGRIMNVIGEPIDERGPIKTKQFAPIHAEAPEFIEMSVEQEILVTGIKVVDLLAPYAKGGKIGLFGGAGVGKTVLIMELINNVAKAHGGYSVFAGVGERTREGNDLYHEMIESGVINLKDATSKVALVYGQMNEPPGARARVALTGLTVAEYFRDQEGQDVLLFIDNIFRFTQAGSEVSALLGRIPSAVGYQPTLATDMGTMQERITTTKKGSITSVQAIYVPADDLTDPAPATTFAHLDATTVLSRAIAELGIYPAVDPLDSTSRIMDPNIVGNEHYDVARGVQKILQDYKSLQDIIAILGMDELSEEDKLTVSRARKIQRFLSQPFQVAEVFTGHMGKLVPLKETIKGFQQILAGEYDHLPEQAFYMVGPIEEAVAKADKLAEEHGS

PACAP38: biologically active form of pituitary adenylate cyclase-activating polypeptide
displacement of I-PACAP27 binding by unlabeled peptide (mouse brain microvessels; room temperature): PACAP38>PACAP27>PACAP(6-38)>PACAP(6-27)
Kd (Type-I binding sites): ~500 pM

PACAP(6-38): PACAP antagonist (FTDSYSRYRKQMAVKKYLAAVLGKRYKQRVKNK; ends and bridges not checked)
displacement of I-PACAP27 binding by unlabeled peptide (mouse brain microvessels; room temperature): PACAP38>PACAP27>PACAP(6-38)>PACAP(6-27)

vasoactive intestinal polypeptide [VIP]
displacement of I-PACAP27 binding by unlabeled peptide (mouse brain microvessels; room temperature): not affected
Kd (Type-I binding sites): > 500000 pM

5′-(_P═S)TGATTTGGTCTCTGCAGGC-3′ (antisense dT*dG*dA*dT*dT*dT*dG*dG*dT*dC*dT*dC*dT*dG*dC*dA*dG*dG*dC; listed as Mus musculus) [P-19 mer]
distribution between brain capillaries and parenchyma (capillary depletion) [1]: detected in the target tissue, the brain capillaries
saturability of brain uptake [1]: not significantly decreased
rate of brain uptake (Ki) [1]: 0.18 µL/g/min
mean regional uptake into hippocampus (HPC) versus frontal cortex (FC) and whole brain (WB) [1]: greater than the uptake into the WB
percentage taken up by each gram of brain ([2]; 5 min after iv injection): 0.042 % Inj dose/g
percentage taken up by each gram of liver ([2]; 5 min after iv injection): 447 % Inj dose/g
percentage taken up by each gram of brain ([2]; 10 min after iv injection): 0.079 % Inj dose/g
percentage taken up by each gram of liver ([2]; 10 min after iv injection): 5.54 % Inj dose/g
percentage taken up by each gram of brain ([2]; 30 min after iv injection): 0.116 % Inj dose/g
percentage taken up by each gram of liver ([2]; 30 min after iv injection): 10.43 % Inj dose/g
half-life of efflux from the brain [3]: 3.858 h
rate of brain efflux [3]: 0.0013 % of the injected dose/min

PACAP(6-27): PACAP antagonist (FTDSYSRYRKQMAVKKYLAAVL; ends and bridges not checked)
displacement of I-PACAP27 binding by unlabeled peptide (mouse brain microvessels; room temperature): PACAP38>PACAP27>PACAP(6-38)>PACAP(6-27)

5′-(_P═S)GTGTGGGCCGATGCAAACAGCAG-3′ (antisense dG*dT*dG*dT*dG*dG*dG*dC*dC*dG*dA*dT*dG*dC*dA*dA*dA*dC*dA*dG*dC*dA*dG; listed as Mus musculus) [P-23 mer]
distribution between brain capillaries and parenchyma (capillary depletion) [1]: detected in the target tissue, the brain capillaries
saturability of brain uptake [1]: significantly reduced
rate of brain uptake (Ki) [1]: 0.20 µL/g/min
mean regional uptake into hippocampus (HPC) versus frontal cortex (FC) and whole brain (WB) [1]: significantly greater
percentage taken up by each gram of brain ([2]; 5 min after iv injection): 0.010 % Inj dose/g
percentage taken up by each gram of liver ([2]; 5 min after iv injection): 2.71 % Inj dose/g
percentage taken up by each gram of brain ([2]; 10 min after iv injection): 0.044 % Inj dose/g
percentage taken up by each gram of liver ([2]; 10 min after iv injection): 5.33 % Inj dose/g
percentage taken up by each gram of brain ([2]; 30 min after iv injection): 0.052 % Inj dose/g
percentage taken up by each gram of liver ([2]; 30 min after iv injection): 7.67 % Inj dose/g
half-life of efflux from the brain [3]: 0.797 h
rate of brain efflux [3]: 0.0063 % of the injected dose/min

PACAP [PACAP27]
time at which specific binding reached a maximum (mouse brain microvessels; 53 pM, room temperature): about 20 min
displacement of I-PACAP27 binding by unlabeled peptide (mouse brain microvessels; room temperature): PACAP38>PACAP27>PACAP(6-38)>PACAP(6-27)
amount of unlabeled PACAP27 above which binding was inhibited competitively (mouse brain microvessels; self-inhibition of I-PACAP27 binding): above 30 ng
Kd (Type-I binding sites): ~500 pM

5′-(_P═S)GATCACGTACACATCGACACCAGTCGCCATGACTGAGCTT (dG*dA*dT*dC*dA*dC*dG*dT*dA*dC*dA*dC*dA*dT*dC*dG*dA*dC*dA*dC*dC*dA*dG*dT*dC*dG*dC*dC*dA*dT*dG*dA*dC*dT*dG*dA*dG*dC*dT*dT; listed as Mus musculus) [random 42-mer]
uptake of I-PACAP27 delivered by brain perfusion (beta-F1 ATPase): no statistically significant effect
